Data reported in patent US20190218304A1, “POTENTIATING THE EFFECT OF ATP RELEASE” (INNATE PHARMA, priority 2017, published 2019).

Tested on: MCA205 mouse tumor cells (sarcoma)
Assay: In vivo combination treatment, MCA205 tumors in human CD39 KI mice
[1] = first experimental series: oxaliplatin at day 5, murine I-394 twice a week from day 4
[2] = second experimental series, repeated oxaliplatin

Procedure: 1×10^6 MCA205 mouse tumor cells (sarcoma) were subcutaneously engrafted in the right flank of mice genetically modified to express human CD39 (CD39KI mice). […] Tumors were measured twice a week with a caliper (L: length and w: width) and tumor volume was calculated with the formula (L×w2)/2. Mice were sacrificed when tumor volume was above 1800 mm^3 or when tumors were highly necrosed. The human CD39 KI mice were engrafted with MCA205 tumor cells at day 0.
In a first experimental series, mice were treated at day 5 post tumor cell engraftment with either control (1 group) PBS, or oxaliplatin chemotherapy (2 groups). In parallel, one group of mice treated with oxaliplatin was injected twice a week with anti-CD39 antibody, with the anti-CD39 antibody treatment starting just one day before oxaliplatin treatment (at day 4).

With `O=C1[O][Pt]2([NH][C@@H]3CCCC[C@H]3[NH]2)[O]C1=O` [oxaliplatin] the “Complete Response (CR), number of mice” value [1] was “no CR”, the Survival median [1] was 25 days and the tumor free mice (second experimental series, 40 days post tumor engraftment) was 2/12. For the same compound, the “CR (complete responses), number of mice” value [2] was 2, the “partial responses (PR), number of mice” value [2] was 3 and the “effect on tumor growth / tumor volume and mice survival” value (second experimental series: oxaliplatin injected twice, one week apart, one day after I-394) was “some regression of tumor volume, and increase in mice survival”.
